Usually IC50 stands for the concentration that inhibits the measured activity by half.

Consider two compounds from patent US20210100777A1, “HEAT SHOCK PROTEIN (HSP) INHIBITION AND MONITORING EFFECTIVENESS THEREOF” (H. LEE MOFFITT CANCER CENTER AND RESEARCH INSTITUTE, INC., priority 2013, published 2021).

Each structure is given as a SMILES string.

Experiment [1] deals with BIM, Mcl-1 and BMF mRNA in vemurafenib-resistant melanoma cell lines. The experiment is described as follows: Quantitative real-time PCR. The note with it: M229R; 3 μM, 48 hours.
In experiment [2] the test system is matched pairs of vemurafenib naïve and resistant melanoma cell lines and melanoma cell lines with intrinsic resistance. The experiment is described as follows: Growth inhibition, MTT assay. The settings on record: M229/M229R, M249/M249R, WM164/WM164R, 1205Lu/1205LuR; paired t-test. Type of experiment: cell-based. As to the method:
(§1) Growth inhibition. Cells were plated at a density of 2.5×10^4 cells per ml and left to grow overnight before being treated with increasing concentrations of vemurafenib or XL888. After 72 hours, the levels of growth inhibition were examined using the MTT assay (Smalley et al., Br. J. Cancer 96:445-9 (2007)). […] Vemurafenib and XL888 were dissolved in 100% DMSO and stored at −20° C. as a 10 mM solution.
(§2) Statistical analysis of GI50 values. Triplicate experiments were performed for each cell line under each drug treatment. To estimate the IC50 values for each cell line for each treatment, a 4-parameter Hill equation was used to model the nonlinear sigmoid relationship between the drug concentration and % cell survival. Briefly,
(§3) where x is the drug concentration, y is the % survival, ε is the error term. The four parameters in the model to estimate are: 1) the control-level effect (E); 2) the background-level effect (B); 3) the median effect concentration (GI50); and 4) the strength of the inhibition (m). The constraint of non-negative minimum background effect (B) is imposed so the model is biologically meaningful. Levenberg-Marquardt algorithm for nonlinear least squares was used to fit the model and estimate all four parameters for each cell line under each treatment. Estimated concentration at 50% cell survival, i.e., IC50, is estimated using the plugged-in parameters after model fitting. Note that when the control and background effects are 100% and 0%, respectively, the estimated GI50 and IC50 values would be identical. To compare the estimated IC50 values between the resistance and naïve paired of cell lines, after log transformation, a paired t-test was performed for each drug.
A general note: Tetrazolium assays rely on reduction of a dye to a coloured formazan, in cell work by metabolically active cells.

The subject of another experiment is RPMI 7951. Nature of the experiment: Growth inhibition, MTT assay. The note with it: Homo sapiens, RPMI 7951 (overexpression of COT), 72 hours. The experiment is classed as cell-based. As to the method:
as §1, §2, §3

Another experiment relates to WM39. Nature of the experiment: Growth inhibition, MTT assay. Type of experiment: cell-based. The note with it: WM39 (amplification of cyclin D1), 72 hours. As to the method: as §1, §2, §3

On to `Cn1cnc2c(F)c(Nc3ccc(Br)cc3Cl)c(C(=O)NOCCO)cc21` [MEK inhibitor], for which the BMF expression result in experiment [1] was “robust induction of BMF expression”.

Consider `CCCS(=O)(=O)Nc1ccc(F)c(C(=O)c2c[nH]c3ncc(-c4ccc(Cl)cc4)cc23)c1F` [vemurafenib, N-(3-{[5-(4-chlorophenyl)-1H-pyrrolo[2,3-b]pyridin-3-yl]carbonyl}-2,4-difluorophenyl)propane-1-sulfonamide], for which, in experiment [2], the “difference in growth inhibition / IC50 between naïve and resistant pairs of cell lines” value is reported as “statistically significant difference in the extent of growth inhibition”. Besides, the IC50 with RPMI 7951 and in the experiment with WM39 was above 3 µM in each case.
